Test results published in paper PMC6896172, “Successful Targeting of the Warburg Effect in Prostate Cancer by Glucose-Conjugated 1,4-Naphthoquinones” (Cancers, 2019).

Tests used:
[1] = tested on: PC-3 cells; assay: MTT cytotoxicity assay in PC-3 cells; type: cell-based, human
From the text: (§1) For general experiments human prostate cancer cell lines PC-3 and DU145 (docetaxel-resistant, androgen-independent, AR-FL(−), AR-V7(−)), 22Rv1 and VCaP (docetaxel-sensitive, androgen-independent, AR-FL(+), AR-V7(+), and LNCaP (docetaxel sensitive, androgen-dependent, AR-FL(+), AR-V7(−) were used. PC-3, 22Rv1, LNCaP cells as well as the human prostate non-cancer cells PNT2 and RWPE-1 were purchased from ATCC (Manassas, VA, USA). VCaP were purchased from ECACC (Salisbury, UK). The human fibroblast cell line MRC-9, the human embryonic kidney cell line HEK 293T, as well as the human umbilical vascular endothelial cell line HUVEC were kindly donated by Prof. Dr. Dr. med. Sonja Loges (University Medical Center Hamburg-Eppendorf, Hamburg, Germany). Cells were cultured according to the manufacturers’ instructions and were recently authenticated by a commercial service (Multiplexion, Heidelberg, Germany). Culture conditions are described in the Supplementary Information.
(§2) MTT (3-(4,5-dimethylthiazol-2-yl)-2,5-diphenyltetrazolium bromide) cytotoxicity assay was used for the evaluation of cytotoxicity of the compounds or their combinations. Experiments were performed as previously described. In brief, 6000 cells/well were seeded in 96-well plate, incubated overnight, and treated with the drugs in 100 µL/well of 10% FBS/RPMI media containing 2 g/L of D-(+)-glucose for 48 h, unless otherwise stated. For 2 h treatment the cells were treated with the drugs for 2 h in the culture media, then the media was exchanged to fresh drug-free media (100 µL/well) containing MTT reagent and the further steps were performed as previously described.
(§3) Table S4. Cytotoxic activity of the synthesized compounds. Cytotoxicity was determined in human prostate cancer PC-3 cells versus human prostate non-cancer
(§4) PNT2 cells after 48 h of treatment, as well as its ratio. IC50 was evaluated using MTT assay. SI–selectivity index. #–the IC50s in both cell lines were >100 µM.
(§5) Anisomycin was used as a reference substance.
(§6) No Formula IC50(PC-3) IC50(PNT2) SI […]

[2] = tested on: 22Rv1 cells; assay: MTT cytotoxicity assay in 22Rv1 cells; type: cell-based, human; conditions: for IC50: Homo sapiens
Procedure: (§7) Dr. Dr. med. Sonja Loges (University Medical Center Hamburg-Eppendorf, Hamburg, Germany). Cells were cultured according to the manufacturers’ instructions and were recently authenticated by a commercial service (Multiplexion, Heidelberg, Germany). Culture conditions are described in the Supplementary Information.
as §2

[3] = tested on: HEK293 cells; assay: MTT cytotoxicity assay in HEK293 cells; type: cell-based; conditions: Homo sapiens, 48 h of treatment, non-cancer
Procedure: as §7, §2

[4] = tested on: 22Rv1 cells; assay: Western blotting of treated cells; type: cell-based, human
Procedure: (§8) Preparation of protein extracts for western blotting was performed as described previously. In brief, for western blotting, 1 × 10^6 cells/well were seeded in Petri dishes (ø 6 cm TC Dish (Sarstedt, Numbrecht, Germany) in 5 mL/dish), incubated overnight and treated with drugs in 5 mL/dish for an indicated time. Cells were harvested using a cell scraper, pelleted, and resuspended in the lysis buffer containing protease and phosphatase inhibitors. Further sample preparation and western blotting were performed as previously described with slight modifications. Relative optical density of the detected bands was quantified with Quantity One 4.6 software (Bio-Rad, Hercules, CA, USA). The primary and secondary antibodies used are listed in the Supplementary Information.

[5] = tested on: RWPE-1 cells; assay: MTT cytotoxicity assay in RWPE-1 cells; type: cell-based; conditions: Homo sapiens, 48 h of treatment, non-cancer
Procedure: as §7, §2

[6] = tested on: 22Rv1 cells; assay: Cell fractionation followed by Western blotting; type: cell-based, human; conditions: 48 h
Procedure: as §8
22Rv1 cells were seeded in T75 culture bottles (4 × 10^6 cells/bottle in 20 mL/bottle), treated for 48 h and harvested by scratching. The further separation of cytosolic, mitochondrial and nuclear fractions was performed using the Cell Fractionation Kit ab109719 (abcam, Cambridge, MA) as previously described. Mitochondrial and cytosolic fractions were concentrated using Amicon® Ultra-2 Centrifugal Filter device (Cat. No. UFC203024, Merck, Darmstadt, Germany). Nuclear fractions were additionally homogenized using QIAshedder kit (QIAGEN, Hilden, Germany).

[7] = tested on: VCaP cells; assay: MTT cytotoxicity assay in VCaP cells; type: cell-based; conditions: Homo sapiens, 48 h of treatment, cancer
Procedure: as §7, §2

[8] = tested on: PNT2 cells; assay: MTT cytotoxicity assay in PNT2 cells; type: cell-based, human; conditions: 48 h of treatment
From the text: as §1, §2, §3, §4, §5, §6

[9] = tested on: 22Rv1 cells; assay: Colony formation assay; type: cell-based, human; conditions: 22Rv1 cells treated with non-cytotoxic concentrations for 48 h
Procedure: Colony formation assays were performed as described before. In brief, cells were treated with the drugs for 48 h and then 100 alive cells were plated into each well of 6-well plates and incubated for 10 days. Surviving colonies were fixed, stained with Giemsa solution and counted.

[10] = tested on: 22Rv1 cells; assay: Trypan blue exclusion viability assay; type: cell-based; conditions: Homo sapiens, 48 h of treatment
Procedure: The in vitro effect of the drugs on cell viability and proliferation was evaluated using trypan blue exclusion assay as described before with minor modifications. In brief, cells (0.2 × 10^6 cells/well) were seeded in 12-well plates, incubated overnight, the media was replaced with fresh media (1 mL/well) and treated with the drugs for 48 h. Cells were harvested by trypsination and the viability was measured using trypan blue staining and Beckman Coulter Vi-CELL (Beckman Coulter, Krefeld, Germany).

[11] = tested on: 22Rv1 cells; assay: Intracellular ROS (CM-H2DCFDA, flow cytometry); type: cell-based, human; conditions: 2 h of treatment
Procedure: Intracellular ROS levels were estimated using the ROS-sensitive CM-H2DCFDA reagent (Cat. No. C6827, Molecular probes, Invitrogen, Eugene, OR, USA) as described before. In brief, 22Rv1 cells were seeded in 12-well plates (0.2 × 10^6 cells/well in 1 mL/well of media) and incubated overnight. The media was changed into freshly made pre-warmed 4 µM CM-H2DCFDA/PBS (0.5 mL/well) and incubated for 30 min (37 °C, 5% CO2, in the dark). Then, the CM-H2DCFDA solution was exchanged with 1 mL/well of pre-warmed PBS containing the drugs or H2O2 (positive control) at the indicated concentrations. After 2 h of incubation the cells were trypsinized and immediately analyzed by flow cytometry technique according to the manufacture’s protocols.

- IC50 [10]: 2.04 µM
Compound: CC1(C)OC2OC(C(O)COC3=CC(=O)c4cccc(O)c4C3=O)C(O)C2O1 (stereo not shown) [Compound 11]
- IC50 ([1]; Homo sapiens, PC-3, 48 h, 48 h of treatment): 2.07 µM
- SI [IC50(PNT2) / IC50(PC-3)] ([1]; ratio of IC50 in PNT2 cells to IC50 in PC-3 cells, 48 h): 2.40
- effect of N-acetyl-L-cysteine pre-treatment on cytotoxic activity ([2]; 22Rv1 cells, 1 mM NaC 1 h then co-treatment 48 h, FBS- and glucose-free RPMI): significantly suppressed the cytotoxic activity
- IC50 ([2]; 22Rv1, 48 h of treatment, cancer, read-out: IC50 (22Rv1)): 0.71 µM
- IC50 ([2]; 22Rv1 cells, 2 h treatment, read-out: IC50 after 2 h of treatment): 20.4 µM
- IC50 [3]: 4.46 µM
- cleavage of caspase-9 ([4]; 2 h and 48 h treatment): observed already after 2 h
- ERK1/2 activity ([4]; 2 h treatment): suppressed
- MEK1/2 alteration ([4]; 2 h treatment): No significant alteration
- activation of Akt ([4]; 2 h treatment): slight Akt activation
- activation of p38 and JNK1/2 ([4]; 2 h treatment): pronounced activation
- AR-FL and AR-V7 expression ([4]; 48 h treatment): downregulated both, AR full length (AR-FL) and AR-V7
- Bax and Bcl-2 expression ([4]; 48 h treatment): up-regulation of Bax and down-regulation of Bcl-2
- LC3B-II and SQSTM1 levels (autophagy markers) ([4]; pre-cytotoxic and cytotoxic concentrations, 48 h): accumulation of both, LC3B-II and SQSTM1
- IC50 [5]: 1.48 µM
- release of mitochondrial proteins AIF and cytochrome C [6]: release of mitochondrial proteins
- IC50 [7]: 3.11 µM
- IC50 [8]: 4.96 µM
- IC50 ([8]; Homo sapiens, PNT2, 48 h): 4.96 µM
- cancer cell colony formation [9]: suppress cancer cell colony formation
- effect on ROS level [11]: remarkable and significant increase of the ROS level
